Assay results taken from ChEMBL document CHEMBL4007390, “Design, synthesis and biological evaluation of indolin-2-one-based derivatives as potent, selective and efficacious inhibitors of FMS-like tyrosine kinase3 (FLT3)” (Eur J Med Chem, 2017).

Tests used:
MV4-11 [1] = assay: Antiproliferative activity against human MV4-11 cells harboring FLT3 ITD mutant after 72 hrs by MTS assay; assay type: functional, cell-based; settings: MV4-11, 72 h
[2] = target: Vascular endothelial growth factor receptor 2 (Homo sapiens) (UniProt P35968); assay: Inhibition of human VEGFR2 at 0.1 uM relative to control
[3] = target: Vascular endothelial growth factor receptor 3 (Homo sapiens) (UniProt P35916); assay: Inhibition of human VEGFR3 at 0.1 uM relative to control
[4] = target: T1, Platelet-derived growth factor receptor alpha (Homo sapiens, UniProt P16234); assay: Inhibition of human PDGFRalpha at 0.1 uM relative to control
[5] = tested on: Platelet-derived growth factor receptor alpha (Homo sapiens), P16234 [D842V]; assay: Inhibition of human PDGFRalpha D842V mutant at 0.1 uM relative to control
[6] = tested on: Platelet-derived growth factor receptor alpha (Homo sapiens), P16234 [T674I]; assay: Inhibition of human PDGFRalpha T674I mutant at 0.1 uM relative to control
[7] = tested on: Platelet-derived growth factor receptor alpha (Homo sapiens), P16234 [V561D]; assay: Inhibition of human PDGFRalpha V561D mutant at 0.1 uM relative to control
[8] = target: Mast/stem cell growth factor receptor Kit (Homo sapiens, UniProt P10721); assay: Inhibition of human KIT at 0.1 uM relative to control
[9] = target: Proto-oncogene tyrosine-protein kinase receptor Ret (Homo sapiens) (UniProt P07949); assay: Inhibition of human RET at 0.1 uM relative to control
[10] = target: Aurora kinase A (Homo sapiens) (UniProt O14965); assay: Inhibition of human Aurora A at 0.1 uM relative to control
[11] = target: Tyrosine-protein kinase ABL1 (Homo sapiens) (UniProt P00519); assay: Inhibition of human ABL1 at 0.1 uM relative to control
[12] = target: ALK tyrosine kinase receptor (Homo sapiens) (UniProt Q9UM73); assay: Inhibition of human ALK at 0.1 uM relative to control
[13] = target: Ephrin type-B receptor 4 (Homo sapiens) (UniProt P54760); assay: Inhibition of human EPHB4 at 0.1 uM relative to control
[14] = target: AMPK alpha2/beta1/gamma1 (Homo sapiens) (UniProt P54646+P54619+Q9Y478); assay: Inhibition of human AMPK alpha2/beta1/gamma1 at 0.1 uM relative to control; assay type: protein-complex assay
[15] = target: AMP-activated protein kinase (AMPK) alpha-1/beta-1/gamma-1 (Homo sapiens) (UniProt P54619+Q9Y478+Q13131); assay: Inhibition of human AMPK alpha1/beta1/gamma1 at 0.1 uM relative to control; assay type: protein-complex assay
[16] = target: Mitogen-activated protein kinase 1 (Homo sapiens) (UniProt P28482); assay: Inhibition of human MAPK1 at 0.1 uM relative to control
[17] = target: Serine/threonine-protein kinase PAK 4 (Homo sapiens) (UniProt O96013); assay: Inhibition of human PAK4 at 0.1 uM relative to control
[18] = target: Tyrosine-protein kinase Lck (Homo sapiens) (UniProt P06239); assay: Inhibition of human LCK at 0.1 uM relative to control
[19] = target: Tyrosine-protein kinase SYK (Homo sapiens) (UniProt P43405); assay: Inhibition of human SYK at 0.1 uM relative to control
[20] = target: Discoidin domain-containing receptor 2 (Homo sapiens) (UniProt Q16832); assay: Inhibition of human DDR2 at 0.1 uM relative to control
[21] = target: Tyrosine-protein kinase ZAP-70 (Homo sapiens) (UniProt P43403); assay: Inhibition of human ZAP70 at 0.1 uM relative to control
[22] = target: Receptor-type tyrosine-protein kinase FLT3 (Homo sapiens, UniProt P36888); assay: Inhibition of human FLT3
[23] = Inhibition of human FLT3 ITD mutant
[24] = target: Receptor-type tyrosine-protein kinase FLT3 (Homo sapiens, UniProt P36888, D835Y); assay: Inhibition of human FLT3 D835Y mutant
[25] = target: T1, Platelet-derived growth factor receptor alpha; assay: Inhibition of human PDGFRalpha
Jurkat = assay: Antiproliferative activity against FLT3 negative human Jurkat cells after 72 hrs by MTS assay; assay type: functional, cell-based
HL-60 = assay: Antiproliferative activity against FLT3 negative human HL60 cells after 72 hrs by MTS assay; assay type: functional, cell-based; settings: HL-60, 72 h
KG-1 = assay: Antiproliferative activity against human KG1 cells harboring wild type FLT3 after 72 hrs by MTS assay; assay type: functional, cell-based; settings: KG-1, 72 h
[26] = Tmax in Balb/c nude mouse at 40 mg/kg, po via gavage by LC-MS/MS analysis; assay type: ADME, organism-based; settings: in vivo
[27] = Half life in Balb/c nude mouse at 40 mg/kg, po via gavage by LC-MS/MS analysis; assay type: ADME, organism-based; settings: in vivo
[28] = AUC (0 to infinity) in Balb/c nude mouse at 40 mg/kg, po via gavage by LC-MS/MS analysis; assay type: ADME, organism-based; set-up: dose 40 mg/kg, time infinity, route oral; settings: in vivo
MV4-11 [29] = assay: Antitumor activity against human MV4-11 cells xenografted in Harlan nude mouse assessed as tumor growth inhibition at 20 mg/kg, ig bid for 20 days relative to control; assay type: functional; settings: MV4-11, po, 480 h, read-out: TGI
MV4-11 [30] = assay: Antitumor activity against human MV4-11 cells xenografted in Harlan nude mouse assessed as tumor growth inhibition at 80 mg/kg, ig bid for 20 days relative to control; assay type: functional; settings: MV4-11, po, 480 h, read-out: TGI
Mus musculus = assay: Toxicity in Harlan nude mouse xenografted with human MV4-11 cells assessed as mouse death at 5 to 80 mg/kg, ig bid for 20 days; assay type: organism-based; settings: in vivo, po, 480 h
Cytochrome P450 1A2 = Cytochrome P450 1A2 (Homo sapiens, UniProt P05177); assay: Inhibition of microsomal CYP1A2 (unknown origin) using phenacetin as substrate preincubated for 5 mins followed by NADPH addition by LC-MS/MS analysis; assay type: ADME
[31] = target: Receptor-type tyrosine-protein kinase FLT3 (Homo sapiens) (UniProt P36888); settings: 0.1 uM
Description: Inhibition of human FLT3 at 0.1 uM relative to control

T1 sequence (P16234 whole entry): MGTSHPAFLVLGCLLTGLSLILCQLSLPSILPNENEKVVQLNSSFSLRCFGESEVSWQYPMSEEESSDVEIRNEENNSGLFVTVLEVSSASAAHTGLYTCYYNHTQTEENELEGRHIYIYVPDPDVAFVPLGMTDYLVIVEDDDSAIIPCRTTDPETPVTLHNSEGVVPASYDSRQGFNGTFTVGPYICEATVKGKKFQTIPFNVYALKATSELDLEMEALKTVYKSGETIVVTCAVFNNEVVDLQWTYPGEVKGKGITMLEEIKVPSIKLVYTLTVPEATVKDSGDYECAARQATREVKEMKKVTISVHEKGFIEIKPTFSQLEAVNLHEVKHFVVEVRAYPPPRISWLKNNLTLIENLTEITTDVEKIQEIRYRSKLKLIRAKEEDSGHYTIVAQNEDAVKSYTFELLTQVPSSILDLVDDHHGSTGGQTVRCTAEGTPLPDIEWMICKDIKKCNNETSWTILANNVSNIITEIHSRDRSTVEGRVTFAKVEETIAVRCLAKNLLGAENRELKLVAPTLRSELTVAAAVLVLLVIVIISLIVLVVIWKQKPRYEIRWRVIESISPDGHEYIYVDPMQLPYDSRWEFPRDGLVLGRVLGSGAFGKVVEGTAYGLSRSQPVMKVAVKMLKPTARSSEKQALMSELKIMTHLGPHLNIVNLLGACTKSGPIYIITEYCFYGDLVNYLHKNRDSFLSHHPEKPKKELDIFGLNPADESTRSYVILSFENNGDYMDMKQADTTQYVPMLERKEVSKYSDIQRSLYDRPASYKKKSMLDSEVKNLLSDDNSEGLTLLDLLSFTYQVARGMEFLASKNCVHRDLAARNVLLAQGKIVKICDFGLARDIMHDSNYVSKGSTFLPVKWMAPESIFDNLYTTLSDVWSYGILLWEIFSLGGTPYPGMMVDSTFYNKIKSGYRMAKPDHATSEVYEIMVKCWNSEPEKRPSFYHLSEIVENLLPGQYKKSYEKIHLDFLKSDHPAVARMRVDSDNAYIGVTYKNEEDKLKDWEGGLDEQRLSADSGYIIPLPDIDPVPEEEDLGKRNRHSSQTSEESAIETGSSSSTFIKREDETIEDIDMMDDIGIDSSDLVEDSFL
Chain of Tyrosine-protein kinase Lck (Homo sapiens) (P06239 2-509 limits assumed): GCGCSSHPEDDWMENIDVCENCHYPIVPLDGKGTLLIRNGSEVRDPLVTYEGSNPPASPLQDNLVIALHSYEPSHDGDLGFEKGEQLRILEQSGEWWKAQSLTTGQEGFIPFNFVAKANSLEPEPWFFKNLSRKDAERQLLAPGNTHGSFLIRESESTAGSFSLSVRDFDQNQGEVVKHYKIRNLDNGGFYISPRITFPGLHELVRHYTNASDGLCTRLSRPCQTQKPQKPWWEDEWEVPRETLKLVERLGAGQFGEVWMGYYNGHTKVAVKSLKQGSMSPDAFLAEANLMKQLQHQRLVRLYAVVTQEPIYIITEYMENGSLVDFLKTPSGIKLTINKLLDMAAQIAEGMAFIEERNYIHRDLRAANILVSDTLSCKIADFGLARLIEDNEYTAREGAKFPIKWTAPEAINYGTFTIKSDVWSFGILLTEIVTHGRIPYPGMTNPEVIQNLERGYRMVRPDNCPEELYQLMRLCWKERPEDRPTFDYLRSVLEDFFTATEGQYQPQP
Chain of Discoidin domain-containing receptor 2 (Homo sapiens) (Q16832 whole entry, the tested form may be a part): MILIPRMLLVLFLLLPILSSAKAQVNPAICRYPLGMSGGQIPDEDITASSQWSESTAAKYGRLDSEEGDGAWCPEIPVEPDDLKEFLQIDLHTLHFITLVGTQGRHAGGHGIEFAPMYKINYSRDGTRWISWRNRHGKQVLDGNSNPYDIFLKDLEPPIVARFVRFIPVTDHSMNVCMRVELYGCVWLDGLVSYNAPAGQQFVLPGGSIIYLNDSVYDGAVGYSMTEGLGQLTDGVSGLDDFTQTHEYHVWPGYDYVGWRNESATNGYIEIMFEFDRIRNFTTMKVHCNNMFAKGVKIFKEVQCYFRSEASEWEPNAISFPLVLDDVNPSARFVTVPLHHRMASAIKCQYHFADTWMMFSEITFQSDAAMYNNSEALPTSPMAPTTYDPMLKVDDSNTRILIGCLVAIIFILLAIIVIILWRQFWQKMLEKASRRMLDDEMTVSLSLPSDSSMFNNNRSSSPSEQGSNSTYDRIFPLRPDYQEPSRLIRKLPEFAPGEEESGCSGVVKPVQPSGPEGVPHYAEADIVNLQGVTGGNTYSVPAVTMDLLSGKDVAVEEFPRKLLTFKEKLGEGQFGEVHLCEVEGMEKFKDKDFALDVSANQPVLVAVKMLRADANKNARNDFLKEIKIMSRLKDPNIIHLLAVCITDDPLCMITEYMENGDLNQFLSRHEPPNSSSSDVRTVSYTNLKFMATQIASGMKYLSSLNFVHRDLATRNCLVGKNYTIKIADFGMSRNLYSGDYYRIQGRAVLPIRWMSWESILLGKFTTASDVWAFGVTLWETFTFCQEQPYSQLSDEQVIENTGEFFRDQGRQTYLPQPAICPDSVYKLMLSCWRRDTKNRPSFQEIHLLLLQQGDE
Chain of AMPK alpha2/beta1/gamma1 (Homo sapiens) (P54619 whole entry partner): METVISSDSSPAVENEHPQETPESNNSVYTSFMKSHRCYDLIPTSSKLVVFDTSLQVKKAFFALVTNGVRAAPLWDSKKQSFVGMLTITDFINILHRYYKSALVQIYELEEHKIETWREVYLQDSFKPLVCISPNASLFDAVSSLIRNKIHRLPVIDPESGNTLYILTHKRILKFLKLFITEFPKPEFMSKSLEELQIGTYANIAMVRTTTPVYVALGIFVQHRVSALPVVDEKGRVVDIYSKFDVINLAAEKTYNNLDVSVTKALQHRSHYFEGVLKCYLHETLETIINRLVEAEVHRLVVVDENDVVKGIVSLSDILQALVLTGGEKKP
Chain of AMPK alpha2/beta1/gamma1 (Homo sapiens) (P54646 whole entry): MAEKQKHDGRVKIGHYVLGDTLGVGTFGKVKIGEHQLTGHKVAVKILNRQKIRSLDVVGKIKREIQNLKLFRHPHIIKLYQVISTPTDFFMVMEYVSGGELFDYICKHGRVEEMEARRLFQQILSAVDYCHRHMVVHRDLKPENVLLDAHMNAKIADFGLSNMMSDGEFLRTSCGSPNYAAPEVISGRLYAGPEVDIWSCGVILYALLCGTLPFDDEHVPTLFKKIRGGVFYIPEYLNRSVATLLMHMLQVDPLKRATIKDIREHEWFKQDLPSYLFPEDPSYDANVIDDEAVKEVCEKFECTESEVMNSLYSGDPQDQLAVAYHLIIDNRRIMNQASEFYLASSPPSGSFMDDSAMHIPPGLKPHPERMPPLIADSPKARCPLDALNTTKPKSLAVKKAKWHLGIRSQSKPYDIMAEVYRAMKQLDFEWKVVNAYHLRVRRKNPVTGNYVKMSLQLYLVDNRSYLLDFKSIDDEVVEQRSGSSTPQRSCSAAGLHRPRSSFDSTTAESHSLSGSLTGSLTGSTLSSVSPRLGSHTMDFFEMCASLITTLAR
Chain of AMPK alpha2/beta1/gamma1 (Homo sapiens) (Q9Y478 2-270 partner limits assumed): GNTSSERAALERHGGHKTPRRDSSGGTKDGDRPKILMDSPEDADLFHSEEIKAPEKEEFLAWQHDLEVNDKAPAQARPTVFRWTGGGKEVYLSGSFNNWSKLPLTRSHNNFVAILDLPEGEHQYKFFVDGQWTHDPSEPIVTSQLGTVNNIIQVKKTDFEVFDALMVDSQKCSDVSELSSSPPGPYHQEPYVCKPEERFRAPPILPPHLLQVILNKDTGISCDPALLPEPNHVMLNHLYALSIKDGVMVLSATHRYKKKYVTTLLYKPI
Chain of AMP-activated protein kinase (AMPK) alpha-1/beta-1/gamma-1 (Homo sapiens) (P54619 whole entry): as the sequence (P54619 whole entry partner) above
Chain of AMP-activated protein kinase (AMPK) alpha-1/beta-1/gamma-1 (Homo sapiens) (Q13131 whole entry partner): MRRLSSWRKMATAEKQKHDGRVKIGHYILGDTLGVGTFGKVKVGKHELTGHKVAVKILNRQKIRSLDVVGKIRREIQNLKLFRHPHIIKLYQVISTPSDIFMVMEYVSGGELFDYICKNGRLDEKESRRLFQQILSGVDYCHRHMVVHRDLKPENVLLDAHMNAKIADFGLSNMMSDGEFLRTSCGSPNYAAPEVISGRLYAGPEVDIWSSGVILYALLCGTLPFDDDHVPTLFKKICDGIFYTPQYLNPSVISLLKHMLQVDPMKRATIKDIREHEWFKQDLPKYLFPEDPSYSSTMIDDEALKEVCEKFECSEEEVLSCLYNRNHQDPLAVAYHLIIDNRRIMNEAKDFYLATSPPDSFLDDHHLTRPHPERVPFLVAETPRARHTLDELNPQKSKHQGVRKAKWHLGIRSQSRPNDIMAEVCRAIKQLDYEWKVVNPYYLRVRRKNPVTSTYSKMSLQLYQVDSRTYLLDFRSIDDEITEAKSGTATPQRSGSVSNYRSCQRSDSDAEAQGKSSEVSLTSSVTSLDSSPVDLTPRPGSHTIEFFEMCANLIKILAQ
Chain of AMP-activated protein kinase (AMPK) alpha-1/beta-1/gamma-1 (Homo sapiens) (Q9Y478 2-270 partner limits assumed): as the sequence (Q9Y478 2-270 partner limits assumed) above

Cc1[nH]c(/C=C2\C(=O)Nc3ccc(F)cc32)c(C)c1NC(=O)[C@H]1CCCN1.Cl gave an IC50 (MV4-11 [1]) of 24.8 nM, an inhibition [2] of 38% and an inhibition [3] of 47%. For the same compound, the inhibition [4] was 49%, the inhibition [5] was 21% and the inhibition [6] was 98%. It also gave an inhibition [7] of 82%, an inhibition [8] of 85% and an inhibition [9] of 88%. The inhibition [10] was 2%, the inhibition [11] was 20% and the inhibition [12] was 63%. The inhibition [13] was -4%, the inhibition [14] was 58% and the inhibition [15] was 38%. The inhibition [16] was -7%, the inhibition [17] was 14% and the inhibition [18] was 43%. It also gave an inhibition [19] of -3%, an inhibition [20] of 7% and an inhibition [21] of 0%. The IC50 [22] was 5.3 nM, the IC50 [23] was 0.7 nM and the IC50 [24] was 2.7 nM. It also gave an IC50 [25] of 175 nM, an IC50 (Jurkat) of 4180 nM and an IC50 (HL-60) of 6470 nM. The IC50 (KG-1) was 24500 nM, the Tmax [26] was 2 h and the half-life [27] was 1.6 h. It also gave an AUC(0-inf) [28] of 3070 ng·h/mL, an inhibition in vivo at 20 mg/kg (MV4-11 [29]) of 99.8% and an inhibition in vivo at 80 mg/kg (MV4-11 [30]) of 98.9%. For the same compound, the Activity (Mus musculus) was “Non-Toxic”, the IC50 (Cytochrome P450 1A2) was 17700 nM and the inhibition [31] was 95%.
